From US4959363A, “Quinolonecarboxamide compounds, their preparation and use as antivirals” (Sterling Drug Inc., priority 1989, dated 1990)

Legend:
[1] = system: Vero (African Green Monkey Kidney) cells; experiment: In vitro maximum tolerated dose (MTL), Vero cells; assay type: cell-based
[2] = parameters: species or system albino mice; details: mouse
[3] = In vitro maximum tolerated dose (MTL), Vero cells; assay type: cell-based, African Green Monkey; details: monkey, vero cells, In Vitro
[4] = system: herpes simplex virus; experiment: In Vivo - Intravaginal Herpes Virus Infection in Mice; parameters: species or system albino mice; details: Mus musculus, 336 h, oral or intraperitoneal, b.i.d. 5 days, NA = Not active at dose levels tested, read-out: In Vivo MED (Minimum effective dose)
Procedure: In Vivo - Intravaginal Herpes Virus Infection in Mice
Approximately 1 hr. prior to infection, the vaginas of 15 gm albino mice were swabbed with cotton saturated with 0.1 N NaOH to remove vaginal secretions and to irritate the vaginal mucosa slightly. At the proper time, 0.05 ml of an appropriate dose of herpes simplex virus was placed deep in the vagina. Starting 2.5 hrs. prior to infection, the mice were medicated either orally or intraperitoneally. Medication was continued daily for a total of 5 days on a b.i.d. regimen. The test was terminated after 14 days. A comparison of the number of surviving mice and/or extension of survival was made at the end of the test. The criterion for activity was a statistically significant extension of the average survival time of the test group over that of the control mice in two experiments.

| Compound | In Vitro MTL (Maximum tolerated dose) ([1]; monkey, vero cells, 72 h) | In Vivo MTL (Maximum tolerated dose) [2] | MNTC at 72 h [3] [µg/mL] | minimal effective dose [4] [mg/kg/day] | In Vitro MTL (Maximum tolerated dose) ([1]; In Vitro, Vero cells, 4320 min) |
| --- | --- | --- | --- | --- | --- |
| 1,4-Dihydro-1-(4-fluorophenyl)-7-(3-methyl-5-thiazolyl)-4-oxo-3-quinolinecarboxamide [Example 37d] | > 100 | > 100 | – | – | – |
| NC(=O)c1cn(-c2ccncc2)c2cc(-c3ccncc3)ccc2c1=O [Example 10, 1,4-Dihydro-4-oxo-1,7-di(4-pyridinyl)-3-quinolinecarboxamide] | – | 75 | > 200 | 50 to 75 | – |
| NC(=O)c1cn(-c2ccc(Cl)c(Cl)c2)c2cc(-c3ccncc3)ccc2c1=O [Example 14, 1-(3,4-Dichlorophenyl)-1,4-dihydro-4-oxo-7-(4-pyridinyl)-3-quinolinecarboxamide] | – | 100 | > 12.5 | 50 | – |
| CCn1cc(C(=O)NC)c(=O)c2ccc(-c3ccncc3)cc21 [Example 28, 1-Ethyl-1,4-dihydro-N-methyl-4-oxo-7-(4-pyridinyl)-3quinolinecarboxamide] | – | 50 | > 25 | 50 | – |
| NC(=O)c1cn(-c2ccc(Br)cc2)c2cc(-c3ccncc3)ccc2c1=O [Example 31, 1-(4-Bromophenyl)-1,4-dihydro-7-(4-pyridinyl)-4-oxo-3quinolinecarboxamide] | – | 50 | > 12.5 | 50 | – |
| CCn1c(=O)c(C(N)=O)c(O)c2ccc(-c3ccncc3)cc21 [Example 38c, 1-Ethyl-1,2-dihydro-4-hydroxy-2-oxo-7-(4-pyridinyl)-3quinolinecarboxamide] | – | 100 | > 12.5 | 100 to 200 | – |
| Cn1c(O)c(C(N)=O)c(=O)c2ccc(-c3ccncc3)cc21 [Example 39b, 1,4-Dihydro-2-hydroxy-1-methyl-4-oxo-7-(4-pyridinyl)3-quinolinecarboxamide] | – | 150 | 3.1 | 150 to 200 | – |
| NC(=O)c1c(N)n(-c2ccc(F)cc2)c2cc(-c3ccncc3)ccc2c1=O [Example 41c, 2-Amino-1,4-dihydro-1-(4-fluorophenyl)-4-oxo-7-(4-pyriridinyl)-3-quinolinecarboxamide] | – | 100 | > 100 | 50 | – |
| NC(=O)c1cn(-c2ccccc2)c2cc(-c3ccncc3)ccc2c1=O [Example 45e, 1,4-Dihydro-4-oxo-1-phenyl-7-(4-pyridinyl)-3-quinolinecarboxamide] | – | 50 | – | 25 | > 6.25 |
| NC(=O)c1cn(-c2cccc(F)c2)c2cc(-c3ccncc3)ccc2c1=O [Example 46e, 1,4-Dihydro-1-(3-fluorophenyl)-4-oxo-7-(4-pyridinyl)3-quinolinecarboxamide] | – | 50 | > 6.25 | 25 to 50 | – |
